Measurements as given in PubChem BioAssay AID179 (DTP/NCI, 2004).
Several values for one entry are separate records, joined by “and”; a condition that tells them apart may be missing. Identical values can stand only once. Activity calls are given as the source filed them.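 Rule for the calls: active = compounds giving half or more protection of infected cells from virus-caused growth loss, again on retest; inactive = the rest.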

Tested on: CEM cells HIV-1 protection, formazan growth assay
Experiment: NCI AIDS Antiviral Assay
Settings: for IC50: measured here: growth of uninfected CEM cells
Summary of the method: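 Protection of CEM cells against HIV-1 was scored from cell growth (soluble formazan) across five concentrations, with parallel uninfected cells. Lack of protection may reflect toxicity.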

Structure (SMILES)	EC50	IC50	outcome
CC1(C)CNCC(C)(OCc2ccccc2)C(=O)NC(C)(C)CNCC(C)(OCc2ccccc2)C(=O)N1 (configuration not stated)	3.8 µM	24.5 µM	–
Cn1c(=O)c2[nH]c(NN)nc2n(C)c1=O	> 200 µM	105 µM	–
CC1=NNC(N)=N/C1=C\C(Sc1ccc(Cl)cc1)c1ccc([N+](=O)[O-])cc1 (configuration not stated)	> 117 µM	30.9 µM	–
O=c1c2c3c(sc2nc2n1N=CN(c1ccc(Cl)cc1)C2)CCCC3	> 200 µM	38 µM	–
O=C1NC(=O)/C(=C/c2ccc(S(=O)(=O)N/N=C\C(O)C(O)C(O)CO)cc2)N1 (configuration not stated)	> 200 µM	135 µM and 191 µM	–
COC(=O)C1=C(O)c2ccc(Cl)cc2S(=O)(=O)N1C	> 200 µM	87.1 µM	–
CC1(c2ccccc2)CC12C(=O)NC(=O)NC2=O (configuration not stated)	> 107 µM	> 107 µM	–
CC(NC(=O)C(N)Cc1ccc(O)cn1)C(=O)O (configuration not stated)	> 200 µM	> 200 µM	–
O=C(CNc1nccs1)Nn1cnc2ccc(S(=O)(=O)Nc3nccs3)cc2c1=O	> 200 µM	> 200 µM	–
CC(C)n1cc(C(C)(C)C)nc1SSc1nc(C(C)(C)C)cn1C(C)C	> 200 µM	> 200 µM	–
O=C(O)Cc1cc(=O)[nH]c2c1C(=O)CCC2	–	–	inactive
CC1(C)C(=O)C(O)=CC2C1=CCC1C2(C)C(=O)CC2(C)C(C(C)(O)C(=O)CC(O)C(C)(C)O)C(O)CC12C (configuration not stated)	> 20 µM	1.32 µM	–
Fc1cccc(F)c1C1SCc2nc3ccc(Cl)cc3n21 (configuration not stated)	4.07 µM	> 200 µM	–
Nc1c(N2CCCCC2)c(=O)nc2[nH]/c(=C\c3ccco3)c(=O)n12	> 200 µM	158 µM	–
CCOC(=O)c1c(N2CCOCC2)[nH]c(=O)c(C(c2c(O)c(C(=O)OCC)c(N3CCOCC3)[nH]c2=O)C(C)C)c1O	> 200 µM	> 200 µM	–
CC1(C)OC(=O)C2(O1)C(=O)C1CCCCC12 (configuration not stated)	> 200 µM	> 200 µM	–
O=C1C2=C(c3ccccc31)C(c1ccccc1)NC(=S)N2 (configuration not stated)	> 89.1 µM	37.2 µM	–
CNC(=O)OCc1c(COC(=O)NC)c2n(c1C)CS(=O)(=O)C2	> 200 µM	> 200 µM	–
COc1cc2c(cc1OC)[N+]1(C)CCC3OCCC4C[N+]5(C)CCC26C5CC4C3C61 (configuration not stated)	> 372 µM	> 372 µM	–
COc1ccc(C2(OC)Oc3cc(OC)ccc3C(=O)C2(O)O)cc1 (configuration not stated)	> 200 µM	10.7 µM	–
CN1CCN=C1c1ccc(NC(=O)c2ccc(C(=O)Nc3ccc(C4=NCCN4C)cc3)cc2)cc1	> 200 µM	74.1 µM	–
C[N+]1(C)CC=C(N2CCOCC2)CC1	> 200 µM	> 200 µM	–

Structure (SMILES)	EC50	IC50	outcome
NNC(=O)c1n[nH]nc1SSc1n[nH]nc1C(=O)NN	–	–	inactive
Clc1nc(Cl)c2sc(=[Se])sc2n1	> 200 µM	8.51 µM	–
CCOC(=O)CNC(=O)CNC(=O)CNC(=O)CNNc1c(OCc2ccccc2)c(=O)c1=O	> 200 µM	> 200 µM	–
Cc1ccc2ccc3c(-c4ccccc4)cc(C)nc3c2n1.Cc1ccc2ccc3c(-c4ccccc4)cc(C)nc3c2n1.O=C1OC(C(O)C[O-])C(O)=C1O.[Cu+]	> 12.6 µM	0.55 µM	–
COC(=O)NC12CC3CC(C(C)O1)C2N(Cc1ccccc1)C3 (configuration not stated)	> 200 µM	> 200 µM	–
O=C(C(c1ccccc1)c1ccccc1)N1CCN(c2ccccn2)CC1	> 89.1 µM	29.5 µM	–
S=C(N/N=C\C(=N/NC(=S)N1CCCCC1)c1ccccc1)N1CCCCC1	> 200 µM	3.8 µM	–
CCn1cc(C(=O)O)c(=O)c2cc(Cl)c(-n3cccc3)cc21	–	–	inactive
Cc1nc2ccccc2c(C)[n+]1[O-]	> 200 µM	> 200 µM	–
CCN(CC)C1C=CCC2C1S(=O)(=O)C2(C)C (configuration not stated)	> 977 µM	> 977 µM	–
Cc1cc2c(cc1C)[n+](=O)c(C(=O)C/C(=N/NC(=O)c1ccccc1O)C(=O)Nc1ccccc1C(C)C)c(C)n2[O-]	> 229 µM	75.9 µM	–
Cc1cn(C2C(CO)C(CO)C2(F)F)c(=O)[nH]c1=O (configuration not stated)	> 200 µM	> 200 µM	–
COc1ccc(C(=C[N+](=O)[O-])c2ccc(OC)cc2)cc1	–	–	inactive
CN(C)c1ccc(/C=c2\sc3nnc(Cc4ccccc4)n3c2=O)cc1	> 3.98 µM	> 3.98 µM	–
O=[N+]([O-])c1ccc(C2NC3=C(CCCC3)N2)cc1	> 40.7 µM	> 40.7 µM	–
Cc1ccc2nn(-c3ccc(O)cc3)[n+]([O-])c2c1	> 200 µM	> 200 µM	–
COc1ccc(N=Nc2c(-c3ccccc3)nn(C(=O)CC(=O)Nc3cccc(Cl)c3)c2-c2ccccc2)cc1	> 18.2 µM	> 18.2 µM	–
O=C(NCCCN(CCCCN(CCCNC(=O)C(F)(F)F)CCCc1ccccc1)CCCc1ccccc1)C(F)(F)F	> 200 µM	9.77 µM	–
C/C=C(/C)C(=O)O[C@@H]1CCN2CC[C@H](COC(=O)/C(=C/C)CO)C12 (some centres not stated)	> 200 µM	107 µM	–
CC(=O)Nc1ccc(Sc2nnc(NC(C)=O)s2)cc1	> 32.4 µM	> 32.4 µM	–
CC1CC2OC(/C=C/C=C/C=C/C=C\C=C\C(O)=C3/C(=O)C(C(C)C)N(C)C3=O)C(O)C2O1 (configuration not stated)	> 200 µM	107 µM	–
O=C1c2cccc3cc([N+](=O)[O-])cc(c23)C(=O)N1Cc1ccccc1	> 200 µM	5.75 µM	–

Structure (SMILES)	EC50	IC50	outcome
O=C1C2c3[nH]c4ccccc4c3C3CCCCCC3C2C(=O)N1c1ccccc1 (configuration not stated)	–	–	inactive
COc1cccc(NC(=O)C(=O)C2C=CCS2(=O)=O)c1 (configuration not stated)	> 63.1 µM	> 63.1 µM	–
N=C(N)c1ccc(OCCCOc2ccc(C(=N)N)cc2)cc1	> 200 µM	17 µM	–
CC1=C2C(=O)C(C)(C)C=C2C(=O)[C@](C)(O)C12CC2	–	–	inactive
CN1CCN(C(=S)N(C(=O)c2cccs2)c2ccccc2)CC1	> 105 µM	> 105 µM	–
NC(CCc1ncc(-c2ccccc2)s1)C(=O)O (configuration not stated)	–	–	inactive
O=[N+]([O-])c1cc(Cl)ccc1S(=O)(=O)c1cc(Cl)cc2c1NCCC2	> 200 µM	32.4 µM	–
CCCc1cc(=O)oc2c3c(cc(OC(C)CC)c12)O[C@H](C)[C@@H](C)[C@@H]3O (some centres not stated)	3.63 µM	37.2 µM	–
COC(=O)Nc1cn2c(n1)sc1ccccc12	> 200 µM	15.8 µM	–
CCOC(=O)C(CCN1CCC2(CC1)C(=O)N(C)CN2c1ccccc1)C(=O)OCC	> 200 µM	> 200 µM	–
Cc1occc1C(=S)Nc1ccc(Cl)c(/C=N/OC2CCCC2)c1	0.174 µM	14.5 µM	–
Cc1cc2c(C(C)C)c(O)c(O)c(C=NCCc3ccccc3)c2c(O)c1-c1c(C)cc2c(C(C)C)c(O)c(O)c(C=NCCc3ccccc3)c2c1O	> 200 µM	8.71 µM	–
Cc1ccc(NC(=O)CC2Sc3ccccc3NC2=O)cc1C (configuration not stated)	> 6.17 µM	> 6.17 µM	–
C=C1C2CC[C@H]3C4(C)CCCC(C)(C(=O)O)[C@H]4CCC3(C2)[C@@H]1OC(C)=O (some centres not stated)	> 105 µM	77.6 µM	–
COC(=O)/C=C(/C(=O)OC)C1(C)c2cc(C(=O)OC)c(C(=O)OC)c(N)c2C(=N)N1c1ccccc1 (configuration not stated)	–	–	inactive
CC(C)(C)OC(=O)N[C@H]1CCN(C2CCCCC2)C1=O	> 200 µM	> 200 µM	–
CN1CCc2cc(O)c3cc2C1Cc1ccc(cc1)Oc1cc(ccc1OC(=O)C(C)(C)C)CC1c2c(cc(OC(=O)C(C)(C)C)c(OC(=O)C(C)(C)C)c2O3)CCN1C (configuration not stated)	–	–	inactive
CCCCN(CCCC)CC(C(=O)Nc1ccccc1)/C(C)=N\NC(=O)c1ccncc1 (configuration not stated)	> 51.3 µM	30.2 µM	–
CN1CCN=C1c1ccc(NC(=O)Nc2ccc(NC(=O)Nc3ccc(C4=NCCN4C)cc3)cc2)cc1	> 200 µM	38.9 µM	–
CCOC(=O)C1COc2cc(-c3cc(=O)c4ccccc4o3)ccc2O1 (configuration not stated)	–	–	inactive
COc1ccc(/C=C2\N=C(N3CCCCC3)NC2=O)cc1	> 200 µM	> 100 µM	–
O=S(/C=C/C=C/S(=O)(=O)c1ccccc1)c1ccccc1 (configuration not stated)	> 200 µM	0.977 µM	–

Structure (SMILES)	EC50	IC50	outcome
CNC(=O)CN1CC(=O)N(C)C(=O)C1	> 1260 µM	> 1260 µM	–
O=C1COC(c2ccccc2O)=NN1CCN1CCOCC1	> 105 µM	> 105 µM	–
CC12OC(=O)C(C#N)C1(C)C1C(=O)CCCC12 (configuration not stated)	–	–	inactive
CC(=NNC(=S)Nc1ccc(C)cc1)c1cccc(C(C)=NNC(=S)Nc2ccc(C)cc2)n1	> 200 µM	15.1 µM	–
Cc1nc(-[n+]2nc(-c3ccncc3)nn2-c2ccccc2)sc1C	> 200 µM	17 µM	–
CCN(CC)CCN1CCc2c([nH]c3ccccc23)C1c1cccnc1 (configuration not stated)	> 145 µM	> 145 µM	–
O=C1Cc2ccccc2N1/N=C\c1ccc([N+](=O)[O-])cc1	> 67.6 µM	> 67.6 µM	–
Cc1c(Cc2ccccc2)n(COCCCO)c(=O)[nH]c1=O	138 µM	> 200 µM	–
O=c1[nH]nc(Cc2ccccc2)n1/N=C/c1ccncc1	72.4 µM	158 µM	–
Cc1cn(C(CCO)CCO)c(=O)[nH]c1=O	> 200 µM	> 200 µM	–
O=P(O)(O)C(N=C(Nc1ccccc1)Nc1ccccc1)P(=O)(O)O	> 100 µM	> 100 µM	–
Cc1ccc(S(=O)(=O)SC(S(=O)(=O)c2ccc(C)cc2)S(=O)(=O)c2ccc(C)cc2)cc1	> 355 µM	148 µM	–
Cc1cc([N+](=O)[O-])c2c(c1)P(=O)(O)c1cc(C)cc([N+](=O)[O-])c1O2	> 200 µM	> 200 µM	–
CC(=O)Nc1cc2c(O)c(N=Nc3ccc(C(=O)Nc4ccc(N=Nc5ccc(S(=O)(=O)O)cc5)cc4)cc3)c(S(=O)(=O)O)cc2cc1S(=O)(=O)O	–	–	active
CCOP(=O)(OCC)/C(=C/n1c(=S)[nH]c2ccc([N+](=O)[O-])cc21)C(=O)OC	> 200 µM	115 µM	–
Nc1ccc(C(c2ccccc2)(c2ccccc2)c2ccccc2)cc1	–	–	inactive
CCOc1ccccc1NC(=O)C1=C(C)NC(C)=C(C(=O)Nc2ccccc2OCC)C1c1ccc([N+](=O)[O-])cc1	> 9.33 µM	> 9.33 µM	–
COc1ccc2c(c1)CCN1CCc3ccccc3CC21 (configuration not stated)	> 200 µM	53.7 µM	–
C/C(=N\N=C(N)N)C(CN1CCOCC1)C(c1ccccc1)c1c(O)c2ccccc2oc1=O (configuration not stated)	> 52.5 µM	> 52.5 µM	–
